Experimental data from patent US11766410B2, “Composition for preventing or treating dry eye syndrome containing α-humulene as active ingredient” (INJE UNIVERSITY INDUSTRY-ACADEMIC COOPERATION FOUNDATION, priority 2018, dated 2023).

Assays:
Type in all cases: in vivo, rat
MUC1 = test: Mucin gene expression by real-time PCR in conjunctival epithelium after eye drop administration; conditions: 10 μl of 0.5 mg/ml eye drops twice a day for 5 days, right eye vs saline left eye; corrected by β-actin; FIG. 1
Experimental: (§1) α-humulene was administered to the eye in the following way: 6 male rats with a body weight of about 200 g were used, and the left eye was designated as the control group and the right eye was designated as the experimental group. Samples as eye drops were administered to the eye twice a day for 5 days and 10 μl of physiological saline was administered to the left eye (control group) and 10 μl of 0.5 mg/ml α-humulene diluted in physiological saline was administered to the right eye (experimental group) as eye drops. Animals were sacrificed to extract the conjunctival epithelium containing the fornix conjunctiva from the eyes and the extracted tissue was isolated and used for molecular biological analysis.
(§2) RNA was extracted from the ocular tissues of rats according to the manufacturers instructions using RNeasy mini kit from Qiagen (USA). The cDNA was synthesized using the cDNA synthesis kit of Qiagen (USA) from the isolated RNA, and then it was used for real-time polymerase chain reaction (real-time PCR). Real-time PCR was performed according to the manufacturer's instructions using Qiagen's Rotor-Gene Q 2 plex real-time DNA amplifier and Qiagen's two-step PCR SYBR kit, and the amount of amplified DNA was quantitatively compared. Specifically, after pre-denaturation at 95° C. for 5 minutes based on the cycling protocol, each 40 cycles were repeated at 95° C. for 5 seconds and at 60° C. for 10 seconds, and it was performed in the order of the melting step rising for 3 minutes from 60° C. to 95° C. The product amplified by the real-time PCR was quantified using the Delta delta Ct method, and corrected by the expression amount of β-actin for each sample.

MUC4 = test: as above; conditions: 10 μl of 0.5 mg/ml eye drops twice a day for 5 days, right eye vs saline left eye; corrected by β-actin; FIG. 1
Experimental: as §1, §2

MUC6 = test: as above; conditions: 10 μl of 0.5 mg/ml eye drops twice a day for 5 days, right eye vs saline left eye; corrected by β-actin; FIG. 1
Experimental: as §1, §2

animal model of dry eye = test: Inhibition and treatment effect on dry corneal epithelial damage, tear amount by tear test strip; conditions: 10 μl of 0.5 mg/ml eye drop solution for 2 weeks, FIG. 2
Experimental: For experiments on dry corneal epithelial damage, an animal model of dry eye was prepared. It was induced by instill 1% atropine sulfate and 0.1% benzalkonium chloride twice a day for 2 weeks. After administration of the dry eye inducer, the experimental animals were applied by ocular administration according to the above-described administration method at an interval of 1 hour.
After administration of the sample for 2 weeks, the animals were anesthetized with isoflurane, and then the tear amount of each rat was measured using a Shrimer tear test strip.

Compound: C/C1=C\CC/C(C)=C/CC(C)(C)/C=C/C1 [α-humulene]
- expression of MUC1 (MUC1): increased significantly
- expression of MUC4 (MUC4): increased significantly
- expression of MUC6 (MUC6): increased significantly
- amount of tears (animal model of dry eye; AS/BAC-induced dry eye, tear test strip): significant difference in the amount of tears
- therapeutic effect on dry corneal epithelial damage (animal model of dry eye; dry eye induced by 1% atropine sulfate/0.1% benzalkonium chloride (AS/BAC)): showed the therapeutic effect of the corneal epithelium
